Data taken from the Deep4Chem optical property database.
Each block holds one molecule with its values, some of them ahead of it.

Assay: solvent given as SMILES

Structure (SMILES): Cc1ccc(N(C)C)cc1C1=C2C=CC(=[N+](C)C)C=C2[Si](C)(C)c2cc(N(C)C)ccc21
- emission maximum (in O): 662 nm

Structure (SMILES): c1ccc(-c2nc(-c3ccccc3)nc(-c3ccc(-n4c5ccccc5c5c6c(ccc54)-c4ccccc4C6(c4ccccc4)c4ccccc4)cc3)n2)cc1
- emission maximum (in C1CCOC1): 504.15 nm
- emission maximum (in CCCCCC): 407.03 nm
- emission maximum (in Cc1ccccc1): 446 nm
- emission maximum (in ClCCl): 530.05 nm
- emission maximum (in O=P(c1ccccc1)(c1ccccc1)c1ccccc1Oc1ccccc1P(=O)(c1ccccc1)c1ccccc1): 475 nm

Structure (SMILES): CCCCCCCc1ccc(C2=[N+]3C(=C4c5cc(OCC(CC)CC)c(-c6ccc(CCCCCCC)o6)n5[B-](F)(F)[n+]5nnn(c54)[B-]3(F)F)C=C2OCC(CC)CC)o1
- emission maximum (in C1CCOC1): 829 nm
- emission maximum (in ClCCl): 835 nm

Structure (SMILES): CCC1(CC)c2cc(C=O)ccc2-c2ccc(N(C)C)cc21
- emission maximum (in C1CCCCC1): 416 nm
- emission maximum (in CC#N): 521 nm
- emission maximum (in CCO): 562 nm
- emission maximum (in CCOCC): 436 nm
- emission maximum (in CS(C)=O): 532 nm
- emission maximum (in ClCCl): 491 nm
- emission maximum (in c1ccccc1): 437 nm

Structure (SMILES): Cc1ccc(C2=C3C=C(I)C=[N+]3[B-](F)(F)n3c2cc(I)c3I)cc1
- emission maximum (in C1CCCCC1): 577.5 nm
- emission maximum (in CC#N): 578 nm
- emission maximum (in CCO): 582 nm
- emission maximum (in CCOC(C)=O): 578.5 nm
- emission maximum (in CO): 580 nm
- emission maximum (in OCC(F)(F)F): 576 nm

Structure (SMILES): CCOC(=O)c1sc(SC)c2c(=O)[nH]nnc12
- emission maximum (in C1CCOC1): 465 nm
- emission maximum (in CC#N): 478 nm
- emission maximum (in CCO): 492 nm
- emission maximum (in CN(C)C=O): 478 nm
- emission maximum (in CO): 499 nm
- emission maximum (in CS(C)=O): 491 nm

Structure (SMILES): c1cc(N2CCCC2)ccn1
- emission maximum (in CC1CCCCC1): 313 nm
- emission maximum (in CCO): 313 nm
- emission maximum (in ClC(Cl)Cl): 313 nm

Structure (SMILES): CCN(CC)c1ccc2cc(/C=C/c3ccccc3)c(=O)oc2c1
- emission maximum (in CC#N): 477 nm

Structure (SMILES): CC/[NH+]=c1\cc2oc3cc(NCCC(=O)NC(C(=O)OC)c4ccccc4)c4ccccc4c3nc-2cc1C (configuration not stated)
- emission maximum (in CCO): 644 nm
- emission maximum (in O): 657 nm

Structure (SMILES): O=S(=O)([O-])c1cc(S(=O)(=O)Cl)ccc1C1=c2cc3c4c(c2Oc2c1cc1c5c2CCCN5CCC1)CCC[N+]=4CCC3
- emission maximum (in O): 615 nm

Structure (SMILES): COc1cc2c(cc1F)c(=O)c1cc(F)c(OC)cc1n2-c1ccccc1
- emission maximum (in CCO): 424 nm

Results, then the molecule that gave them:

- emission maximum (in C1CCOC1): 495 nm
- emission maximum (in CC#N): 525 nm
- emission maximum (in CCO): 511 nm
- emission maximum (in CCOC(C)=O): 496 nm
- emission maximum (in CN(C)C=O): 523 nm
- emission maximum (in ClCCl): 516 nm
- emission maximum (in c1ccccc1): 466 nm
Structure (SMILES): Cc1ccc([C@@H]2C[C@](O)(c3ccccn3)C[C@](O)(c3ccccn3)[C@H]2C(=O)c2ccc(N(c3ccccc3)c3ccccc3)cc2)cc1

- emission maximum (in ClC(Cl)Cl): 681 nm
Structure (SMILES): CCOC(=O)c1ccc(/C=C/C2=[N+]3C(=C(c4ccccc4)c4ccc(/C=C/c5ccc(C(=O)OCC)o5)n4[B-]3(F)F)C=C2)o1

- emission maximum (in ClCCl): 484 nm
Structure (SMILES): CCN(CC)c1ccc2cc(-c3ccc(-c4ccc(-c5cc6ccc(N(CC)CC)cc6oc5=O)cc4)cc3)c(=O)oc2c1

- emission maximum (in C1CCOC1): 503 nm
Structure (SMILES): C1=C(c2ccccc2)C=C(c2ccccc2)/C1=C/c1ccc(-c2cccs2)s1

- emission maximum (in ClC(Cl)Cl): 618 nm
Structure (SMILES): N#CC(C#N)=Cc1ccc(-c2ccc(N(c3ccccc3)c3ccccc3)cc2)o1

- emission maximum (in ClCCl): 406 nm
Structure (SMILES): COc1cc2c(cc1OC)C1=C[C@H](c3ccc(Cl)cc3)C3(C(C#N)=C(C#N)N1CC2)c1cc(Cl)ccc1-c1ccc(Cl)cc13

- emission maximum (in C1COCCO1): 411 nm
Structure (SMILES): c1ccc(-c2nc(-c3nc(-c4ccccc4)c(-c4ccccc4)o3)oc2-c2ccccc2)cc1

- emission maximum (in ClCCl): 449 nm
Structure (SMILES): COc1ccc(CCNC(=O)c2sc(-c3ccc(-c4cc(-c5ccc(C(C)(C)C)cc5)c(C(=O)NCCc5ccc(OC)c(OC)c5)s4)s3)cc2-c2ccc(C(C)(C)C)cc2)cc1OC

- emission maximum (in ClC(Cl)Cl): 385 nm
Structure (SMILES): CCCCC1(CCCC)c2ccccc2-c2ccc(-c3c4c(nc5ccccc35)-c3cc5c(cc3CC4)-c3nc4ccccc4c(-c4ccc6c(c4)C(CCCC)(CCCC)c4ccccc4-6)c3CC5)cc21

- emission maximum (in ClC(Cl)Cl): 577 nm
Structure (SMILES): N#Cc1nc(N(Cc2ccc(Cl)cc2)Cc2ccc(Cl)cc2)c(C#N)nc1N(Cc1ccc(Cl)cc1)Cc1ccc(Cl)cc1

- emission maximum (in C1CCOC1): 707 nm
Structure (SMILES): O=C1/C(=C2\Nc3cc4ccc5cccc6ccc(c3C2=O)c4c56)Nc2cc3ccc4cccc5ccc(c21)c3c45
